Literature values as cited in patent US9418186B2, “Assessment of solute partitioning in crude oils” (EXXONMOBIL RESEARCH AND ENGINEERING COMPANY, priority 2012, dated 2016).
Values joined by “and” are separate entries in the source; they are usually repeats but may differ in a detail not shown here. Equal values may be shown once. Read-outs that look alike come from different tables or passages of the source.

Tests used:
[1] = Miller (North Sea) crude oil / water
[2] = chloroform / water
[3] = North Sea crude oil / water
[4] = not given; remark: listed apart in the source

SMILES | literature value for the partition coefficient in octanol-water | log K in octanol-water (literature) | experimental partition coefficient [1] | experimental value for the log of the partition coefficient [1] | experimental partition coefficient [2] | experimental value for the log of the partition coefficient [2] | experimental partition coefficient [3] | experimental value for the log of the partition coefficient [3] | solubility in water [4] [gmol/m^3]
Oc1ccccc1 [phenol] | 28.8 | 1.45 | 1.72 | 0.238 and 0.24 | 0.74 | −0.13 |  |  | 
S [H2S] | 27.5 | 1.44 |  |  |  |  | 4.09 | 0.612 | 
O=C1CCCCCN1 [caprolactam] |  |  |  |  | 0.74 | −0.131 |  |  | 40353
